Consider 14 compounds from patent publication US20140082772A1, “Herbicide-Tolerant Plants” (priority 2010, published 2014).

Series [1] deals with AHAS-inhibitor tolerant WOSR line. In words: Plot pre-emergence crop tolerance (PHYTOX), Example 4, tolerant line. Format: in vivo, Brassica napus. As to the method: (§1) Plants of an AHAS-inhibitor tolerant WOSR line and plants of an AHAS-inhibitor susceptible WOSR line are sown side by side in a plot. A pre-emergence treatment of herbicides is applied to the plants by means of fine distributed nozzles. There are four replications of each treatment.
(§2) The evaluation for crop-tolerance is assessed as PHYTOX symptom caused by the chemical compounds carried out using a scale from 0 to 100%, compared to the untreated control plants. Here, 0 means no damage and 100 means complete destruction of the plants.

Series [2] concerns AHAS-inhibitor susceptible WOSR line. Briefly: Plot pre-emergence crop tolerance (PHYTOX), Example 4, susceptible line. It is filed as in vivo, Brassica napus. As to the method:
as §1, §2

Series [3] relates to first AHAS-inhibitor susceptible WOSR line. Briefly: Greenhouse post-emergence herbicide crop damage, Example 1, susceptible line. Format: in vivo, Brassica napus. As to conditions: post-emergence at GS/BBCH 12, assessed 21-22 DAT. As to the method:
(§3) Each pot is planted with two plants, the plants are watered from beneath and fertilized according there requirement. The pots are stored side by side in a greenhouse at 12° C. at the emergence phase. The temperature increases to 15-20° C. three weeks after sowing.
(§4) A post-emergence treatment of herbicides is applied to the plants by means of fine distributed nozzles and a water use rate of 200 L/ha at the growth stage GS/BBCH 12 (2 true leaf stage). The herbicides are tested at different rates. Five cultivar replicates are carried out per rate.
(§5) The evaluation of efficacy is assessed as crop damage caused by the herbicides using a scale from 0 to 100%, compared to the untreated control plants. Here, 0 means no damage and 100 means complete destruction of the plants. The level of efficacy is assessed 21-22 days after treatment (DAT). The efficacy results are presented as ED50 values.

Series [4] concerns AHAS-inhibitor tolerant WOSR line. In words: Greenhouse post-emergence herbicide crop damage, Example 1, tolerant line. It is filed as in vivo, Brassica napus. As to conditions: post-emergence at GS/BBCH 12, assessed 21-22 DAT. As to the method:
as §3, §4, §5

In series [5] the test system is second AHAS-inhibitor susceptible WOSR line. Briefly: Greenhouse post-emergence herbicide crop damage, Example 2, susceptible line. Format: in vivo, Brassica napus. As to conditions: post-emergence at GS/BBCH 10, assessed 19 DAT. As to the method: (§6) Plants of an AHAS-inhibitor tolerant WOSR line and plants of a second AHAS-inhibitor susceptible WOSR line are sown in 10 cm pots with a sandy loam. Each pot is planted with two plants, the plants are watered from beneath and fertilized according there requirement. The pots are stored side by side in a greenhouse at 12° C. at the emergence phase. The temperature increases to 15-20° C. three weeks after sowing.
(§7) A post-emergence treatment of herbicides is applied to the plants by means of fine distributed nozzles and a water use rate of 200 L/ha at the growth stage GS/BBCH 10. The herbicides are tested at different rates. Twelve cultivar replicates are carried out per rate.
(§8) The evaluation of efficacy is assessed as crop damage caused by the herbicides using a scale from 0 to 100%, compared to the untreated control plants. Here, 0 means no damage and 100 means complete destruction of the plants. The level of efficacy is assessed 19 days after treatment (DAT). The efficacy results are presented as ED50 values.

Series [6] has as its system AHAS-inhibitor tolerant WOSR line. Briefly: Greenhouse post-emergence herbicide crop damage, Example 2, tolerant line. It is filed as in vivo, Brassica napus. The note with it: post-emergence at GS/BBCH 10, assessed 19 DAT. As to the method:
as §6, §7, §8

Series [7] has the same test system. In words: Plot post-emergence crop tolerance (PHYTOX), Example 3, WOSR. It is filed as in vivo, Brassica napus. The note with it: post-emergence at GS 12/13, 15 DAT, crop GS 14/15, AI rate g/ha: flupyrsulfuron-methyl-sodium 5, thifensulfuron-methyl 15, tritosulfuron 25, tribenuron-methyl 15. As to the method: (§9) Plants of an AHAS-inhibitor tolerant WOSR line and plants of an AHAS-tolerant SOSR line are sown side by side in a plot. A post-emergence treatment of herbicides is applied to the plants by means of fine distributed nozzles at the growth stage GS/BBCH 12/13. There are four replications of each treatment.
as §2

For series [8], the system named is AHAS-tolerant SOSR line. Briefly: Plot post-emergence crop tolerance (PHYTOX), Example 3, SOSR. Format: in vivo, Brassica napus. As to conditions: post-emergence at GS 12/13, 15 DAT, crop GS 13/14, AI rate g/ha: flupyrsulfuron-methyl-sodium 5, thifensulfuron-methyl 15, tritosulfuron 25, tribenuron-methyl 15. The method, then:
as §9, §2

Series [9] deals with spring-type B. napus cultivar, 45A77. The note with it: PM-mutant gene-containing spring-type cultivar 45A77; R. Degenhardt et al., Weed Technology 19, 2005, 608; cited from earlier work.
[10] abbreviates: 10 DAT, crop GS 10/11, AI rate g/ha: propoxycarbazone 7, sulfosulfuron 2, flupyrsulfuron-methyl 1.8, amidosulfuron 2.75.
[11] abbreviates: 29 DAT, crop GS 11/13, AI rate g/ha: propoxycarbazone 7, sulfosulfuron 2, flupyrsulfuron-methyl 1.8, amidosulfuron 2.75.

With `COc1cc(OC)nc(NC(=O)NS(=O)(=O)N(C)S(C)(=O)=O)n1` [Amidosulfuron], the PHYTOX % is given as 0% in series [1] (setting [10]), 0% in series [1] (setting [11]), 100% in [2] (setting [10]) and 100% in series [2] (setting [11]).

As for `COc1nc(C)nc(NC(=O)NS(=O)(=O)c2ccccc2Cl)n1` [Chlorsulfuron], the “ED50 (crop damage, scale 0 to 100% vs untreated control)” value in series [3] amounted to 0.42 g/ai/ha; in [4], 2.8 g/ai/ha; in series [5], 0.04 g/ai/ha; in [6], 11.2 g/ai/ha.

Regarding `COc1ncc(F)c2nc(S(=O)(=O)Nc3c(F)cccc3F)nn12` [Florasulam], the “ED50 (crop damage, scale 0 to 100% vs untreated control)” value worked out at 1.51 g/ai/ha in [3], 6.53 g/ai/ha in series [4], 0.28 g/ai/ha in series [5] and 4.9 g/ai/ha in [6].

For the compound `COC(=O)c1ccc(C(F)(F)F)nc1S(=O)(=O)NC(=O)Nc1nc(OC)cc(OC)n1` [Flupyrsulfuron-methyl-sodium], the “ED50 (crop damage, scale 0 to 100% vs untreated control)” value was 0.58 g/ai/ha in series [3], 63316.17 g/ai/ha in [4], 0.79 g/ai/ha in [5] and 147.97 g/ai/ha in [6]. Besides, the PHYTOX % in series [7] is 11%; in [8], 19%.

With `COC(=O)c1ccc(C(F)(F)F)nc1S(=O)(=O)NC(=O)Nc1nc(OC)cc(OC)n1` [Flupyrsulfuron-methyl], the PHYTOX % in series [1] (setting [10]) was determined as 0%; in series [1] (setting [11]), 0%; in series [2] (setting [10]) it was 100%; in series [2] (setting [11]), 100%.

Regarding `COC(=O)c1ccccc1S(=O)(=O)NC(=O)Nc1nc(C)nc(OC)n1` [Metsulfuron-methyl], the “ED50 (crop damage, scale 0 to 100% vs untreated control)” value is 0.57 g/ai/ha in [3], 5.06 g/ai/ha in series [4], 0.17 g/ai/ha in [5] and 2.28 g/ai/ha in [6].

In the case of `CCCOc1nn(C(=O)[N-]S(=O)(=O)c2ccccc2C(=O)OC)c(=O)n1C.[Na+]` [Propoxycarbazone-sodium], the “ED50 (crop damage, scale 0 to 100% vs untreated control)” value is on record as 2.16 g/ai/ha in series [3], 67.43 g/ai/ha in series [4], 0.17 g/ai/ha in series [5] and 42.07 g/ai/ha in [6].

Take `CCCOc1nn(C(=O)[N-]S(=O)(=O)c2ccccc2C(=O)OC)c(=O)n1C.[Na+]` [Propoxycarbazone]: the PHYTOX % turned out to be 0% in [1] (setting [10]), 0% in series [1] (setting [11]), 100% in [2] (setting [10]) and 100% in series [2] (setting [11]).

`CCS(=O)(=O)c1nc2ccccn2c1S(=O)(=O)NC(=O)Nc1nc(OC)cc(OC)n1` [Sulfosulfuron]: the “ED50 (crop damage, scale 0 to 100% vs untreated control)” value is 1.70 g/ai/ha in series [3], 2417.06 g/ai/ha in [4], 0.01 g/ai/ha in series [5] and 3.29 g/ai/ha in series [6]. Further, the PHYTOX % in [1] (setting [10]) is on record as 0%; in series [1] (setting [11]), 0%; in series [2] (setting [10]), 99%; in [2] (setting [11]) it was 99%.

Turning to `COC(=O)c1sccc1S(=O)(=O)NC(=O)Nc1nc(C)nc(OC)n1` [Thifensulfuron-methyl], the results for the PHYTOX % in series [7] and in series [8] were 13% and 23%, respectively.

Regarding `COC(=O)c1ccccc1S(=O)(=O)NC(=O)N(C)c1nc(C)nc(OC)n1` [Tribenuron-methyl], the “ED50 (crop damage, scale 0 to 100% vs untreated control)” value in series [3] is on record as 2.59 g/ai/ha; in series [4] it was 25.88 g/ai/ha; in series [5], 0.11 g/ai/ha; in series [6] it was 9.11 g/ai/ha. The PHYTOX % in series [7] amounted to 17%; in series [8] it was 25%.

For `COc1nc(NC(=O)NS(=O)(=O)c2ccccc2C(F)(F)F)nc(C(F)(F)F)n1` [Tritosulfuron], the “ED50 (crop damage, scale 0 to 100% vs untreated control)” value in series [3] is on record as 0.39 g/ai/ha; in series [4], 42.30 g/ai/ha; in series [5] it was 1.76 g/ai/ha; in series [6] it was 2.96 g/ai/ha. Moreover, the PHYTOX % stood at 43% in series [7] and 53% in series [8].

Take `COc1nc(C)nc(NC(=O)NS(=O)(=O)c2ccsc2C(=O)O)n1` [thifensulfuron]: the “effect of application on the crop” value in series [9] is listed as “reduced canola biomass, herbicide injury symptoms, or delayed maturity”.

“Trisulfuron-methyl [Trisulfuron-methyl 500]”: the “ED50 (crop damage, scale 0 to 100% vs untreated control)” value in [3] was found to be 3.36 g/ai/ha; in [4] it was 41.81 g/ai/ha; in series [5] it was 0.03 g/ai/ha; in [6], 4.48 g/ai/ha.
